Test results: article PMC10709440, “High-throughput ligand profile characterization in novel cell lines expressing seven heterologous insect olfactory receptors for the detection of volatile plant biomarkers” (Scientific Reports, 2023)
Where two headings read alike, the source gives them in different places.

Experiments:
Drosophila OR47a = biological target: T1, Drosophila OR47a (Drosophila melanogaster, UniProt P81921); experiment: Calcium ion fluorescence (GCaMP6) assay, OR47a stable HEK293 cell line; type: cell-based; settings: for OR47a response (VUAA1-normalized) at 1 μM / OR47a response (VUAA1-normalized) at 10 μM / OR47a response (VUAA1-normalized) at 100 μM / Average response: OR47a cell line; for OR47a response (VUAA1-normalized) at 1 μM: VOC concentration 1 μM; for OR47a response (VUAA1-normalized) at 10 μM: VOC concentration 10 μM; for OR47a response (VUAA1-normalized) at 100 μM: VOC concentration 100 μM; for Average response: mean of biological replicates
T1 construct: expressed in transfected cells
T1 sequence (P81921 1-385): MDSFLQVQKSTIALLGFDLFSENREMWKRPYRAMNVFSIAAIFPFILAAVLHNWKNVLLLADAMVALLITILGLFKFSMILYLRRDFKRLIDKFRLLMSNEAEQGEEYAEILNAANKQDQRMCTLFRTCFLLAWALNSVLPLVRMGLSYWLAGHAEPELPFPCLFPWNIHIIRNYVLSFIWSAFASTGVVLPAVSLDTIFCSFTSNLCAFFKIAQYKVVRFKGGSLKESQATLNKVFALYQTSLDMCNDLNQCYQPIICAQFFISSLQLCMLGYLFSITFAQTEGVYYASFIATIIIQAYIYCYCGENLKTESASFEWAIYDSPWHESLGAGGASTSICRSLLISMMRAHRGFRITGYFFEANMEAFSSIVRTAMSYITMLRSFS
T1 sequence (Q9VNB5 1-486 partner): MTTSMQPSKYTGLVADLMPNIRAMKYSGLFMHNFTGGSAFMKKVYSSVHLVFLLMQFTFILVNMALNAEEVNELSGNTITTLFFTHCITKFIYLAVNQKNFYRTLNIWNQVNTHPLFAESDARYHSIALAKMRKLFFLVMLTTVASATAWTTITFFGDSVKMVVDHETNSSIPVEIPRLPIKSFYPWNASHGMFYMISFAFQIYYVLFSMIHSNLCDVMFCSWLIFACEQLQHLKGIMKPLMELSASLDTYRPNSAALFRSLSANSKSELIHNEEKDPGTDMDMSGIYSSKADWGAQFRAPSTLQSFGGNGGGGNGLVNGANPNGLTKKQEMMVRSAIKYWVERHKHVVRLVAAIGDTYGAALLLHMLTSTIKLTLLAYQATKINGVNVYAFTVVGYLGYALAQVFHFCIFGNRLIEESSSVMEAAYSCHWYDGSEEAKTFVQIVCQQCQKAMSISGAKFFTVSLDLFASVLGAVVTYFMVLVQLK
Method in brief: (§1)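 HEK293 lines stably expressing each Drosophila OR with GCaMP6, doxycycline-induced (1 μg/mL) 48 or 72 h. Fluorescence recorded 5 s baseline then 30 s after VOC injection at pH 7.3; ΔF=(FMAX−F0)/F0, normalized to 50 µM VUAA1 response per line, triplicate wells averaged; concentration series 0.01–100 μM.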

Drosophila OR98a = biological target: T2, Drosophila OR98a (Drosophila melanogaster, UniProt Q9VAZ3); experiment: Calcium ion fluorescence (GCaMP6) assay, OR98a stable HEK293 cell line; type: cell-based; settings: for OR98a response (VUAA1-normalized) at 1 μM / OR98a response (VUAA1-normalized) at 10 μM / OR98a response (VUAA1-normalized) at 100 μM: OR98a cell line; for OR98a response (VUAA1-normalized) at 1 μM: VOC concentration 1 μM; for OR98a response (VUAA1-normalized) at 10 μM: VOC concentration 10 μM; for OR98a response (VUAA1-normalized) at 100 μM: VOC concentration 100 μM
T2 construct: expressed in transfected cells
T2 sequence (Q9VAZ3 1-397): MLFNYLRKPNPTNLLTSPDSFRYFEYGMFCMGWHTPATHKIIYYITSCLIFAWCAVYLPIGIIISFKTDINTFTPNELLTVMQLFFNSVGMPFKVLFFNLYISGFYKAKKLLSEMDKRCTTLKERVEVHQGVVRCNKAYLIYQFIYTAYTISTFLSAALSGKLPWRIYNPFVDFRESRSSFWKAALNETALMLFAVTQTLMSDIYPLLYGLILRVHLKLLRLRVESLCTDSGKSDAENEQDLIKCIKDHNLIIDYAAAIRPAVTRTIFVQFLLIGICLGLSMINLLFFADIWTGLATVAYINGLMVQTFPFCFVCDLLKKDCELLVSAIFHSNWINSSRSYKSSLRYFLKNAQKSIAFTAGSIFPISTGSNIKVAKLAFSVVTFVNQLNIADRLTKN
T2 sequence (Q9VNB5 1-486 partner): T1 sequence (Q9VNB5 1-486 partner)
Method in brief: as §1

[1] = ligand concentration 1 (unit not given), threshold 0.05, below shown as 0
[2] = ligand concentration 10 (unit not given), threshold 0.05, below shown as 0
[3] = ligand concentration 100 (unit not given), threshold 0.05, below shown as 0
[4] = HEK293, read-out: Average response
[5] = HEK293, read-out: OR47a Average response (VUAA1-normalized)
[6] = HEK293, read-out: OR47a response (VUAA1-normalized response)
[7] = concentration 1, normalized fluorescence change, values below 0.05 threshold given as 0
[8] = concentration 10, normalized fluorescence change, values below 0.05 threshold given as 0
[9] = concentration 100, normalized fluorescence change, values below 0.05 threshold given as 0
[10] = HEK293, read-out: OR98a Average response (VUAA1-normalized)
[11] = HEK293, read-out: OR98a response (VUAA1-normalized response)

Structure (SMILES)	OR47a response (VUAA1-normalized) at 1 μM (Drosophila OR47a)	OR47a response (VUAA1-normalized) at 10 μM (Drosophila OR47a)	Average response (Drosophila OR47a; odorant cc. 1 µM)	Average response (Drosophila OR47a; odorant cc. 10 µM)	Average response (Drosophila OR47a; odorant cc. 100 µM)	DF norm AVERAGE OR47a (Drosophila OR47a; [1])	DF norm AVERAGE OR47a (Drosophila OR47a; [2])	DF norm AVERAGE OR47a (Drosophila OR47a; [3])	activation at 1 µM (Drosophila OR98a; [4]) [%]	activation at 10 µM (Drosophila OR98a; [4]) [%]	activation at 100 µM (Drosophila OR98a; [4]) [%]	DF norm AVERAGE OR98a (Drosophila OR98a; [1])	DF norm AVERAGE OR98a (Drosophila OR98a; [2])	DF norm AVERAGE OR98a (Drosophila OR98a; [3])	activation at 1 µM (Drosophila OR47a; [6]) [%]	activation at 10 µM (Drosophila OR47a; [6]) [%]	activation at 100 µM (Drosophila OR47a; [6]) [%]	activation at 1 µM (Drosophila OR98a; [11]) [%]	activation at 10 µM (Drosophila OR98a; [11]) [%]	activation at 100 µM (Drosophila OR98a; [11]) [%]	also measured
Cc1cccc(C)c1 [m-xylene]	0.00	0.00	0.00	0.00	0.00	0	0	0	0	0	2.54	0	0	0	–	–	–	–	–	–	OR47a response (VUAA1-normalized) at 100 μM (Drosophila OR47a): 0.00; OR98a response (VUAA1-normalized) at 1 μM (Drosophila OR98a): 0.00; OR98a response (VUAA1-normalized) at 10 μM (Drosophila OR98a): 0.00; OR98a response (VUAA1-normalized) at 100 μM (Drosophila OR98a): 0.00
CCCCCC(C)=O [2-heptanone]	–	–	0.03	0.19	0.46	–	–	–	7	1.68	11	–	–	–	0	19	46	7	0	11	activation at 1 µM (Drosophila OR47a; [5]): 3%; activation at 10 µM (Drosophila OR47a; [5]): 19%; activation at 100 µM (Drosophila OR47a; [5]): 46%; DF norm AVERAGE OR47a (Drosophila OR47a; [7]): 0; DF norm AVERAGE OR47a (Drosophila OR47a; [8]): 0.1895; DF norm AVERAGE OR47a (Drosophila OR47a; [9]): 0.4589; activation at 1 µM (Drosophila OR98a; [10]): 7%; activation at 10 µM (Drosophila OR98a; [10]): 2%; activation at 100 µM (Drosophila OR98a; [10]): 11%; DF norm AVERAGE OR98a (Drosophila OR98a; [7]): 0.06738; DF norm AVERAGE OR98a (Drosophila OR98a; [8]): 0; DF norm AVERAGE OR98a (Drosophila OR98a; [9]): 0.1149
OCCc1ccccc1 [phenethyl alcohol]	0.0564	0.0644	0.0564	0.0644	0.057	0.05643	0.06438	0.05701	4	5	12	0	0.05123	0.122	–	–	–	–	–	–	OR47a response (VUAA1-normalized) at 100 μM (Drosophila OR47a): 0.057; activation at 1 µM (Drosophila OR98a; [10]): 4%; activation at 10 µM (Drosophila OR98a; [10]): 5%; activation at 100 µM (Drosophila OR98a; [10]): 12%; OR98a response (VUAA1-normalized) at 1 μM (Drosophila OR98a): 0.00; OR98a response (VUAA1-normalized) at 10 μM (Drosophila OR98a): 0.05; OR98a response (VUAA1-normalized) at 100 μM (Drosophila OR98a): 0.12
CCOC(=O)CC [ethyl propionate]	–	–	0.00	0.0134	0.0175	0	0	0	2	2	1.5	0	0	0	0	0	0	0	0	0	–
C=CC(O)C/C=C\CC (stereo not drawn) [(5Z)-octa-1,5-dien-3-ol]	–	–	0.00	0.00	0.00	–	–	–	0	8	7	–	–	–	0	0	0	0	8	7	DF norm AVERAGE OR47a (Drosophila OR47a; [7]): 0; DF norm AVERAGE OR47a (Drosophila OR47a; [8]): 0; DF norm AVERAGE OR47a (Drosophila OR47a; [9]): 0; DF norm AVERAGE OR98a (Drosophila OR98a; [7]): 0; DF norm AVERAGE OR98a (Drosophila OR98a; [8]): 0.08127; DF norm AVERAGE OR98a (Drosophila OR98a; [9]): 0.07281
CC/C=C\CCO [Z-3-hexenol]	0.00	0.0571	–	–	–	–	–	–	–	–	–	–	–	–	–	–	–	–	–	–	OR47a response (VUAA1-normalized) at 100 μM (Drosophila OR47a): 0.10; OR98a response (VUAA1-normalized) at 1 μM (Drosophila OR98a): 0.00; OR98a response (VUAA1-normalized) at 10 μM (Drosophila OR98a): 0.17; OR98a response (VUAA1-normalized) at 100 μM (Drosophila OR98a): 0.11
C=C1CCC2CC1C2(C)C (stereo not drawn) [beta-pinene]	–	–	0.00	0.00	0.00	0	0	0	19	17	1.89	0.1942	0.1655	0	0	0	0	19	17	0	–
